Measured values taken from patent publication US9895349B2, “N-phenyl-carboxamide derivatives and the use thereof as medicaments for the treatment of hepatitis B” (priority 2013, dated 2018).

How the values were obtained:
[1] = Cytotoxicity in HepG2 cells, Resazurin assay; conditions: human
[2] = test system: HBV; assay: Anti-HBV activity, HepG2.2.15 stable transfected cell line, HBV DNA from secreted virions by realtime PCR; type: cell-based, Hepatitis B virus (HBV); conditions: HepG2.2.15 cells, 6 days of treatment
[3] = test system: HBV; assay: Anti-HBV activity, HepG2.117 inducibly HBV producing cell line (Tet-off), intracellular HBV DNA by realtime PCR; type: cell-based, Hepatitis B virus (HBV); conditions: HepG2.117 cells, 3 days of treatment
[4] = Hepatitis B virus, HepG2.2.15, 144 h
[5] = Hepatitis B virus, HepG2.117, 72 h

Compound: CCCS(=O)(=O)N1CC[C@H](C(=O)Nc2ccc(F)c(C)c2)C1 [Compound 6, (3S)—N-(4-fluoro-3-methyl-phenyl)-1-propylsulfonyl-pyrrolidine-3-carboxamide]
- CC50 at 4 days [1]: > 25000 nM
- EC50 [2, 4]: 1900 nM
- EC50 [3, 5]: 620 nM

Compound: Cc1cc(NC(=O)[C@H]2CCN(S(=O)(=O)CC(C)C)C2)ccc1F [Compound 2, (3S)—N-(4-fluoro-3-methyl-phenyl)-1-isobutylsulfonyl-pyrrolidine-3-carboxamide]
- CC50 at 4 days [1]: > 25000 nM
- EC50 [2, 4]: 1320 nM
- EC50 [3, 5]: 310 nM

Compound: Cc1cc(NC(=O)C2CCN(S(=O)(=O)CC(C)C)C2)ccc1F (centres unmarked) [Compound 1, N-(4-fluoro-3-methyl-phenyl)-1-isobutylsulfonyl-pyrrolidine-3-carboxamide]
- CC50 at 4 days [1]: > 25000 nM
- EC50 [2, 4]: 940 nM
- EC50 [3, 5]: 720 nM

Compound: Cc1cc(NC(=O)C2(F)CCN(S(=O)(=O)N[C@H]3CCOC3)C2)ccc1F (single isomer, unassigned) [Compound 42a]
- CC50 at 4 days [1]: > 25000 nM
- EC50 [2, 4]: > 5000 nM
- EC50 [3]: > 5000 nM

Compound: Cc1cc(NC(=O)[C@H]2CCN(S(=O)(=O)NCC(C)C)C2)ccc1F [Compound 31, (3S)—N-(4-fluoro-3-methyl-phenyl)-1-(isobutylsulfamoyl)pyrrolidine-3-carboxamide]
- CC50 at 4 days [1]: > 25000 nM
- EC50 [2, 4]: 450 nM
- EC50 [3, 5]: 470 nM

Compound: CC1(NS(=O)(=O)N2CC[C@H](C(=O)Nc3ccc(F)c(F)c3)C2)COC1 [Compound 44, (3S)—N-(3,4-difluorophenyl)-1-[(3-methyloxetan-3-yl)sulfamoyl]pyrrolidine-3-carboxamide]
- CC50 at 4 days [1]: > 25000 nM
- EC50 [2, 4]: 610 nM
- EC50 [3, 5]: 420 nM

Compound: COC(=O)NC[C@@H](C)NS(=O)(=O)N1CC[C@H](C(=O)Nc2ccc(F)c(C)c2)C1 [Compound 51, methyl N-[(2R)-2-[[(3S)-3-[(4-fluoro-3-methyl-phenyl)carbamoyl]pyrrolidin-1-yl]sulfonylamino]propyl]carbamate]
- CC50 at 4 days [1]: > 25000 nM
- EC50 [2, 4]: 150 nM
- EC50 [3, 5]: 57 nM

Compound: Cc1cc(NC(=O)C23CC2CN(S(=O)(=O)N[C@H]2CCOC2)C3)ccc1F (stereo partly drawn) [Compound 43, N-(4-fluoro-3-methyl-phenyl)-3-[[(3S)-tetrahydrofuran-3-yl]sulfamoyl]-3-azabicyclo[3.1.0]hexane-1-carboxamide]
- CC50 at 4 days [1]: > 25000 nM
- EC50 [2, 4]: 580 nM
- EC50 [3, 5]: 850 nM

Compound: Cc1cc(NC(=O)[C@@H]2CCN(S(=O)(=O)CC(C)C)C2)ccc1F [Compound 3, (3R)—N-(4-fluoro-3-methyl-phenyl)-1-isobutylsulfonyl-pyrrolidine-3-carboxamide]
- CC50 at 4 days [1]: > 25000 nM
- EC50 [2, 4]: > 25000 nM
- EC50 [3, 5]: 1490 nM

Compound: Cc1cc(NC(=O)C2(C)CCN(S(=O)(=O)CC(C)C)C2)ccc1F (racemic) [Compound 29, N-(4-fluoro-3-methyl-phenyl)-1-isobutylsulfonyl-3-methyl-pyrrolidine-3-carboxamide]
- CC50 at 4 days [1]: > 25000 nM
- EC50 [2, 4]: 13700 nM
- EC50 [3]: 18900 nM

Compound: Cc1cc(NC(=O)C2CN(S(=O)(=O)CC(C)C)c3ccccc32)ccc1F (centres unmarked) [Compound 28, N-(4-fluoro-3-methyl-phenyl)-1-isobutylsulfonyl-indoline-3-carboxamide]
- CC50 at 4 days [1]: > 25000 nM
- EC50 [2, 4]: 2000 nM
- EC50 [3, 5]: 3900 nM

Compound: Cc1cc(NC(=O)[C@H]2CCN(S(=O)(=O)NC3CC(=O)N(C)C3)C2)ccc1F (stereo partly drawn) [Compound 50, (3S)—N-(4-fluoro-3-methyl-phenyl)-1-[(1-methyl-5-oxo-pyrrolidin-3-yl)sulfamoyl]pyrrolidine-3-carboxamide]
- CC50 at 4 days [1]: > 25000 nM
- EC50 [2, 4]: 350 nM
- EC50 [3, 5]: 460 nM

Compound: CCC1CC1S(=O)(=O)N1CC[C@H](C(=O)Nc2ccc(F)c(C)c2)C1 (stereo partly drawn) [Compound 24, (3S)-1-(2-ethylcyclopropyl)sulfonyl-N-(4-fluoro-3-methyl-phenyl)pyrrolidine-3-carboxamide]
- CC50 at 4 days [1]: > 25000 nM
- EC50 [2, 4]: 500 nM
- EC50 [3, 5]: 330 nM

Compound: CC[C@@H](C)NS(=O)(=O)N1CC[C@H](C(=O)Nc2ccc(F)c(F)c2)C1 [Compound 45, (3S)—N-(3,4-difluorophenyl)-1-[[(1R)-1-methylpropyl]sulfamoyl]pyrrolidine-3-carboxamide]
- CC50 at 4 days [1]: > 25000 nM
- EC50 [2, 4]: 3250 nM
- EC50 [3, 5]: 540 nM

Compound: Cc1cc(NC(=O)[C@H]2CCN(S(=O)(=O)N3CC4(COC4)C3)C2)ccc1F [Compound 49, (3S)—N-(4-fluoro-3-methyl-phenyl)-1-(6-oxa-2-azaspiro[3.3]heptan-2-ylsulfonyl)pyrrolidine-3-carboxamide]
- CC50 at 4 days [1]: > 25000 nM
- EC50 [2, 4]: 1490 nM
- EC50 [3, 5]: 950 nM

Compound: Cc1cc(NC(=O)[C@@H]2CN(S(=O)(=O)NC(C)C)C[C@H]2C)ccc1F (relative stereo) [Compound 41, trans-N-(4-fluoro-3-methyl-phenyl)-1-(isopropylsulfamoyl)-4-methyl-pyrrolidine-3-carboxamide]
- CC50 at 4 days [1]: > 25000 nM
- EC50 [2, 4]: 530 nM
- EC50 [3, 5]: 420 nM

Compound: Cc1cc(NC(=O)[C@H]2CCN(S(=O)(=O)NC(C)CC#N)C2)ccc1F (stereo partly drawn) [Compound 40, (3S)-1-[(2-cyano-1-methyl-ethyl)sulfamoyl]-N-(4-fluoro-3-methyl-phenyl)pyrrolidine-3-carboxamide]
- CC50 at 4 days [1]: > 25000 nM
- EC50 [2, 4]: 290 nM
- EC50 [3, 5]: 120 nM

Compound: Cc1cc(NC(=O)[C@H]2CCN(S(=O)(=O)C3CCCC3)C2)ccc1F [Compound 10, (3S)-1-cyclopentylsulfonyl-N-(4-fluoro-3-methyl-phenyl)pyrrolidine-3-carboxamide]
- CC50 at 4 days [1]: 22900 nM
- EC50 [2, 4]: 4300 nM
- EC50 [3, 5]: 760 nM

Compound: Cc1cc(NC(=O)[C@H]2CCN(S(=O)(=O)N[C@H]3CCOC3)C2)ccc1F [Compound 33, (3S)—N-(4-fluoro-3-methyl-phenyl)-1-[[(3S)-tetrahydrofuran-3-yl]sulfamoyl]pyrrolidine-3-carboxamide]
- CC50 at 4 days [1]: > 25000 nM
- EC50 [2, 4]: 150 nM
- EC50 [3, 5]: 75 nM

Compound: Cc1cc(NC(=O)[C@@]23C[C@@H]2CN(S(=O)(=O)CC(C)C)C3)ccc1F [Compound 27, (1S,5S)—N-(4-fluoro-3-methyl-phenyl)-3-isobutylsulfonyl-3-azabicyclo[3.1.0]hexane-1-carboxamide]
- CC50 at 4 days [1]: > 25000 nM
- EC50 [2, 4]: 2800 nM
- EC50 [3, 5]: 2000 nM

Compound: Cc1cc(NC(=O)C2(F)CCN(S(=O)(=O)NC(C)C)C2)ccc1F (racemic) [Compound 35a, 3-fluoro-N-(4-fluoro-3-methyl-phenyl)-1-(isopropylsulfamoyl)pyrrolidine-3-carboxamide]
- CC50 at 4 days [1]: > 25000 nM
- EC50 [2]: 563 nM
- EC50 [3]: 228 nM

Compound: Cc1cc(NC(=O)[C@H]2CCN(S(=O)(=O)NC3CCN(C)C3=O)C2)ccc1F (stereo partly drawn) [Compound 48, (3S)—N-(4-fluoro-3-methyl-phenyl)-1-[(1-methyl-2-oxo-pyrrolidin-3-yl)sulfamoyl]pyrrolidine-3-carboxamide]
- CC50 at 4 days [1]: > 25000 nM
- EC50 [2, 4]: 1370 nM
- EC50 [3, 5]: 570 nM

Compound: Cc1cc(NC(=O)[C@H]2CCN(S(=O)(=O)N[C@H](C)CO)C2)ccc1F [Compound 39, (3S)—N-(4-fluoro-3-methyl-phenyl)-1-[[(1R)-2-hydroxy-1-methyl-ethyl]sulfamoyl]pyrrolidine-3-carboxamide]
- CC50 at 4 days [1]: > 25000 nM
- EC50 [3, 5]: 150 nM

Compound: Cc1cc(NC(=O)[C@H]2CCN(S(=O)(=O)NC(C)CNC(=O)OC(C)(C)C)C2)ccc1F (stereo partly drawn) [Compound 38, tert-butyl N-[2-[[(3S)-3-[(4-fluoro-3-methyl-phenyl)carbamoyl]pyrrolidin-1-yl]sulfonylamino]propyl]carbamate]
- CC50 at 4 days [1]: > 25000 nM
- EC50 [2, 4]: 3650 nM
- EC50 [3, 5]: 2070 nM

Compound: Cc1cc(NC(=O)[C@H]2CCN(S(=O)(=O)NC(C)C)C2)ccc1F [Compound 32, (3S)—N-(4-fluoro-3-methyl-phenyl)-1-(isopropylsulfamoyl)pyrrolidine-3-carboxamide]
- CC50 at 4 days [1]: > 25000 nM
- EC50 [2, 4]: 180 nM
- EC50 [3, 5]: 120 nM

Compound: Cc1cc(NC(=O)[C@H]2CCN(S(=O)(=O)NC3(C)COC3)C2)ccc1F [Compound 34, (3S)—N-(4-fluoro-3-methyl-phenyl)-1-[(3-methyloxetan-3-yl)sulfamoyl]pyrrolidine-3-carboxamide]
- CC50 at 4 days [1]: > 25000 nM
- EC50 [2, 4]: 110 nM
- EC50 [3, 5]: 110 nM

Compound: Cc1cc(NC(=O)[C@H]2CCN(S(=O)(=O)NC3(CCO)COC3)C2)ccc1F [Compound 47, (3S)—N-(4-fluoro-3-methyl-phenyl)-1-[[3-(2-hydroxyethyl)oxetan-3-yl]sulfamoyl]pyrrolidine-3-carboxamide]
- CC50 at 4 days [1]: > 25000 nM
- EC50 [2, 4]: 65 nM
- EC50 [3, 5]: 91 nM

Compound: O=C(Nc1ccc(F)c(F)c1)[C@H]1CCN(S(=O)(=O)N[C@H]2CCOC2)C1 [Compound 46, (3S)—N-(3,4-difluorophenyl)-1-[[(3S)-tetrahydrofuran-3-yl]sulfamoyl]pyrrolidine-3-carboxamide]
- CC50 at 4 days [1]: > 25000 nM
- EC50 [2, 4]: 600 nM
- EC50 [3, 5]: 240 nM

Compound: Cc1cc(NC(=O)[C@H]2CCN(S(=O)(=O)C3CCOCC3)C2)ccc1F [Compound 9, (3S)—N-(4-fluoro-3-methyl-phenyl)-1-tetrahydropyran-4-ylsulfonyl-pyrrolidine-3-carboxamide]
- CC50 at 4 days [1]: > 25000 nM
- EC50 [2, 4]: 1400 nM
- EC50 [3, 5]: 950 nM

Compound: CCC(C)S(=O)(=O)N1CC[C@H](C(=O)Nc2ccc(F)c(C)c2)C1 (stereo partly drawn) [Compound 25, (3S)—N-(4-fluoro-3-methyl-phenyl)-1-sec-butylsulfonyl-pyrrolidine-3-carboxamide]
- CC50 at 4 days [1]: > 25000 nM
- EC50 [2, 4]: 5500 nM
- EC50 [3, 5]: 430 nM

Compound: Cc1cc(NC(=O)[C@H]2CCN(S(=O)(=O)CC3CC3)C2)ccc1F [Compound 8, (3S)-1-(cyclopropylmethylsulfonyl)-N-(4-fluoro-3-methyl-phenyl)pyrrolidine-3-carboxamide]
- CC50 at 4 days [1]: > 25000 nM
- EC50 [2, 4]: 580 nM
- EC50 [3, 5]: 330 nM
